We go through twelve compounds from ChEMBL document CHEMBL1150513, “A Hammett correlation for CC-1065 and duocarmycin analogs: Magnitude of substituent electronic effects on functional reactivity” (Bioorg Med Chem Lett, 1996).

The structures appear in SMILES notation. Several values for one entry are separate records, joined by “and”; a condition that tells them apart may be missing. Equal values may be shown once.

One data set concerns L1210. The data set is described as follows: Compound was tested in vitro for cytotoxic potency against L1210 leukemia. It is filed as functional, cell-based. The settings on record: Mus musculus.
The nature of data set [1]: Aqueous solvolysis, K value at a pH of 3.0. It is filed as ADME. As to conditions: buffer, pH 3.
A short description of data set [2]: Aqueous solvolysis, K value at a pH of 2.0. As to conditions: buffer, pH 2. The class given is ADME.
The nature of data set [3]: Half life at a pH of 2.0. It is filed as ADME. The settings on record: pH 2.
A short description of data set [4]: Half life at a pH of 3.0. It is filed as ADME. The settings on record: pH 3.
The nature of data set [5]: Kinetic constant at 0.25 equivalent H+ and 100 equivalent CH3OH. The class given is ADME.
Data set [6] is described as follows: Half life at 0.1 equivalent H+ and 500 equivalent CH3OH. It is filed as ADME.
A short description of data set [7]: Kinetic constant at 0.1 equivalent H+ and 500 equivalent CH3OH. The class given is ADME.
Data set [8] is described as follows: Kinetic constant at 0.1 equivalent H+ and 100 equivalent CH3OH. The class given is ADME.
Data set [9] can be described thus: Half life at 0.25 equivalent H+ and 100 equivalent CH3OH. The class given is ADME.
A short description of data set [10]: Kinetic constant at 0.1 equivalent H+ and 20 equivalent CH3OH. The class given is ADME.
Data set [11] can be described thus: Half life at 0.1 equivalent H+ and 20 equivalent CH3OH. The class given is ADME.

A word on the IC50: it is the midpoint of a concentration-inhibition curve. Read a low IC50 as greater potency. In turn, `COC(=O)[C@]1(C)N=C2C(=O)C=C3N(C(=O)OC(C)(C)C)C[C@H]4C[C@@]34C2=C1O` returned an IC50 in the data set with L1210 of 1000 nM. The k in data set [1] came to 1.75e-06 s⁻¹.
One may read the half-life as how long it takes for the measured level to halve. As for `COc1ccc2c(c1)[C@@]13C[C@@H]1CN(C(=O)OC(C)(C)C)C3=CC2=O`, the k in data set [2] worked out at 1.62e-05 s⁻¹; in [1] it was 1.75e-06 s⁻¹. The same compound yielded an IC50 with L1210 of 90 nM. The half-life in [3] is 11.8 h; in data set [4], 110 h.
In [1], `COC(=O)c1cc2c([nH]1)C(=O)C=C1N(C(=O)OC(C)(C)C)C[C@H]3C[C@]123` had a k of 1.08e-06 s⁻¹.
As to `CC(C)(C)OC(=O)N1C[C@H]2C[C@@]23C1=CC(=O)c1ccccc13`, the k was determined as 1.53e-05 s⁻¹ in [2] and 1.45e-06 s⁻¹ in data set [1]. The compound further yielded an IC50 in the data set with L1210 of 80 nM. The same compound showed a half-life in data set [4] of 133 h.
Compound `CC(C)(C)OC(=O)N1CC[C@H]2C[C@@]23C1=CC(=O)c1ccccc13` yielded an IC50 with L1210 of 2000 nM. In [4], the half-life is 2.1 h. Moreover, in data set [1], the k worked out at 9.07e-06 s⁻¹.
On to `CC(C)(C)OC(=O)N1C[C@H]2C[C@@]23C1=CC(=O)c1ccc(C#N)cc13`, for which the k was 7.4 s⁻¹ in [5]; 7.9e-06 s⁻¹ in data set [2]; 5.6 s⁻¹ in [7]; 2.1 s⁻¹ in data set [8]; 0.2 s⁻¹ in [10]; 9e-07 s⁻¹ in [1]. Also, in data set [6], the T1/2 is 0.92 h and 0.34 h. Besides, the half-life in [9] is 0.26 h; in data set [3] it was 24.2 h; in [4] it was 213 h; in data set [11] it was 9.2 h. The same compound had an IC50 in the data set on L1210 of 20 nM.
In turn, `Cc1c[nH]c2c1[C@@]13C[C@@H]1CN(C(=O)OC(C)(C)C)C3=CC2=O` showed a k in data set [1] of 5.26e-06 s⁻¹.
Compound `COC(=O)N1C[C@H]2C[C@@]23C1=CC(=O)c1ccccc13` yielded a half-inhibitory concentration (IC50) with L1210 of 140 nM. In [4], this compound showed a half-life of 57 h. This compound came in with a k in data set [1] of 3.4e-06 s⁻¹.
`CCS(=O)(=O)N1C[C@H]2C[C@@]23C1=CC(=O)c1ccccc13` displayed an IC50 in the data set with L1210 of 24 nM. In data set [4], this compound showed a half-life of 383 h. This compound gave a k in [1] of 5e-07 s⁻¹.
Taken in the same sequence, the figures for `CNC(=O)N1C[C@H]2C[C@@]23C1=CC(=O)c1ccccc13` were 200 nM, 36 h and 5.3e-06 s⁻¹.
For `CCC(=O)N1C[C@H]2C[C@@]23C1=CC(=O)c1ccccc13`, in that order: 110 nM, 96 h and 2e-06 s⁻¹.
As to `CC(C)(C)OC(=O)N1C[C@H]2C[C@]23C=CC(=O)C=C13`, the IC50 in the data set on L1210 is 18000 nM. Besides, in data set [4], the half-life was 0.01 h. In data set [1], this compound came in with a k of 1.98e-06 s⁻¹.
